Experimental data reported in patent US8771714B2, “Systems and methods for in vivo measurement of interstitial biological activity, processes and/or compositions” (MUSC Foundation for Research Development, priority 2006, dated 2014).
Where two headings read alike, the source gives them in different places. Square brackets hold non-standard residues; d marks the D form. * marks the point of attachment. Dpa = 3-(2,4-dinitrophenyl)-L-2,3-diaminopropionyl; Dnp = O=[N+]([O-])c1ccc(*)c([N+](=O)[O-])c1; Mca = COc1ccc2c(CC(=O)*)cc(=O)oc2c1; Cha = N[C@@H](CC1CCCCC1)C(=O)O; Nva = CCC[C@H](N)C(=O)O; Mob = COc1ccc(C*)cc1

Key:
MMPs = MMPs that cleave the substrate, commercially available substrates, cited from earlier work
MMP-2 and MMP-9 = system: MMP-2 and MMP-9; set-up: species or system pigs; conditions: pig, in vivo
Protocol: Myocardial Infarction: Mature pigs (n 5 20, Yorkshire, 35-40 kg, Hambone Farms) were instrumented to obtain indexes of LV global and regional function as well as for the measurement of myocardial interstitial MMPs. […] A loading dose of 50 mg sufentanil (Elkins-Sinn) was then administered, and a maintenance infusion of lactated Ringer solution (400 ml/h) and morphine 60 mg/h, Elkins-Sinn) was initiated. A continuous infusion of tubocurarine (3 mg/h, Bristol-Myers-Squibb) and lidocaine (120 mg/h, Elkins-Sinn) was established. In preliminary studies, this anesthetic protocol provided a deep anesthetic plane and stable hemodynamic profiles for at least 8 hours.
In a second set of studies, interstitial myocardial MMP activity was directly quantified using a MMP fluorogenic substrate. For these studies, microdialysis probes containing a 20-kDa molecular mass cutoff (CMA/20, CMA/Microdialysis) membrane were placed within the mid-myocardium. This molecular mass cutoff effectively excluded MMP species from directly traversing from the interstitial space into the microdialysis membrane. […] The samples were read using excitation and emission wavelengths of 280 and 360 nm, respectively (Gilford Fluoro IV; Oberlin, Ohio). […]

angiotensin receptor = angiotensin receptor (Sus scrofa, UniProt P30555); conditions: bolus of 1 mg/kg, infusion of 3 ng/kg/h; previously found; cited from earlier work
[1] = system: MMP-2/9 recombinant protein; assay: MMP-1, 2, 3, 7, 9 substrate incubated with MMP-2/9 recombinant protein; assay type: biochemical
Protocol: Microdialysis: Microdialysis probes with a molecular weight cutoff of 20 kDa and an outer diameter of 0.5 mm were placed in the LV. The molecular weight cutoff of the microdialysis probe prevented any MMP species from traversing the membrane. A fluorogenic substrate specific for MMP-1, 2, 3, 7, and 9 (Calbiochem, La Jolla, Calif.) at a concentration of 60 ˜mol/L was stored in a 2.5 mL Bee Stinger® Gastight Syringe (Bioanalytical Systems, Inc) and infused at a rate of 5 ˜L/min through the 2 probes by the Baby Bee® Syringe Drive controlled by the MD-1020 Bee Hive Controller (Bioanalytical Systems, Inc). Fluorescence emitted via substrate cleavage deter-mined MMP activity. Substrate was allowed to equilibrate for 20 minutes before the beginning of the protocol. All tubing and syringes were protected from light. The specificity of this substrate was determined and performed as described for these fluorogenic substrates previously. […] With the addition of a broad spectrum MMP inhibitor (BB-94, 10 mmol/L, British Biotech), fluorescence emission was abolished.

MMP-2/9 = assay: Specificity of MT1-MMP substrate: incubation with MMP-2/9; assay type: biochemical; conditions: MMP-2/9 500 ng/mL alone, 30 mM substrate
Protocol: (§1) In an additional set of experiments (FIG. 16), MT1-MMP catalytic domain (1000 ng/mL, BIOMOL, Plymouth Meeting, Pa.) was injected into a 96-well polystyrene plate (Nalge Nunc International, Rochester, N.Y.) with a 30 mM mixture of MT1-MMP substrate only or MT1-MMP substrate with MMP-2/9 (500 ng/mL, Chemicon; FIG. 16, top), MMP-8 (10 ng/mL, Calbiochem; FIG. 16, middle), or a disintegrin and metalloproteinase (ADAM)-10 and -17 cocktail (200 ng/mL, R&D Systems; FIG. 16, bottom).

[2] = system: a disintegrin and metalloproteinase (ADAM)-10 and -17; assay: Specificity of MT1-MMP substrate: incubation with ADAM-10 and -17 cocktail; assay type: biochemical; conditions: ADAM-10 and -17 cocktail 200 ng/mL alone, 30 mM substrate
Protocol: as §1

MMP-8 = target: T1, MMP-8 (Homo sapiens, UniProt P22894); assay: Specificity of MT1-MMP substrate: incubation with MMP-8; assay type: biochemical; conditions: MMP-8 10 ng/mL alone, 30 mM substrate
T1 construct: purchased Calbiochem
Protocol: as §1

[3] = target: T2, MT1-MMP (MMP-14) recombinant catalytic domain (Homo sapiens, UniProt P50281); assay: In vitro validation of MT1-MMP fluorogenic substrate with recombinant MT1-MMP catalytic domain; assay type: biochemical
T2 construct: recombinant MT1-MMP catalytic domain (BIOMOL, Plymouth Meeting, Pa.); purchased BIOMOL, Plymouth Meeting, Pa
Protocol: Examples of fluorogenic substrate specificity for MMPs are shown below.
Specifically, MT1-MMP substrate (7.5 mM) was injected into a 96-well polystyrene plate (Nalge Nunc International, Rochester, N.Y.) with a 1.0 ng/mL concentration of recombinant MT1-MMP catalytic domain (BIOMOL, Plymouth Meeting, Pa.) and fluorescence emission was recorded. A rapid rise in activity, as measured by fluorescence emission, plateaued around 90 minutes. […] (FIG. 15, top). In addition, full length MT1-MMP (pretreated with 10 mM p-aminophenylmercuric acetate) was incubated for 1 hour at 37° C. with or without an antibody specific for the catalytic domain of MT1-MMP (1000 ng/mL, Chemicon AB8102). After the incubation period, the MT1-MMP substrate was injected and fluorescence emission recorded.
as §1

purified MMP-2/9 = assay: In vitro microdialysis of MMP substrate in immersion solution with purified MMP-2/9; assay type: biochemical; conditions: infused at 2.5 ml/min, purified MMP-2/9, 37° C.
MMP-1, 2, 3, 7, 9 = assay: Ex-vivo MMP-1, 2, 3, 7, 9 activity in myocardial extracts; assay type: biochemical, human; set-up: dose or concentration left out as unconfirmed; conditions: BB94; FIG. 18
Protocol: In addition, these substrates were used to examine MMP activity ex-vivo using myocardial samples from both human and animal specimens. The frozen myocardial tissue was submerged in 2 mL of ice-cold buffer (Cacodylic Acid, NaCl, ZnCl2, CaCl2, NaN3, 0.08% Triton X), homogenized, and spun at 8,000 G for 10 minutes at 4C. The supernatant was then measured, tested for protein concentration, aliquoted, and stored at −70° C. Final protein concentrations were diluted in a reaction buffer containing (0.05% Brij, 50 mM Tris-HCl, 0.2 M NaCl, 10 mM CaCl2, […]) and the samples were loaded onto a 96-well microplate (FluoroNunc® 96-Well Polystyrene Plates) and placed in a 37° C. temperature controlled unit allowing for continuous fluorescence measurements (FLUOstar® Galaxy, BMG Labtechnologies). Substrate (MMP Substrate, Fluorogenic, Calbiochem) was diluted in the same reaction buffer and loaded into the FLUOstar® for automatic injection (12 mM). […] Excitation was set to (280 nm) and emission was set to (360 nm) and readings were taken every 2 minutes following the addition of the substrate. The reaction was allowed to proceed to 200 recordings (398 minutes). This reaction using the MMP-1, 2, 3, 7, 9 specific substrate was linear with increasing concentrations.

MMP-14 = target: T3, MMP-14 (Homo sapiens, UniProt P50281); assay: Ex-vivo MMP-14 activity in myocardial extracts; assay type: biochemical; set-up: dose or concentration left out as unconfirmed; conditions: BB94; FIG. 22
T3 construct: from tissue; host or cells: human myocardium, crude homogenate
Protocol: A similar experiment was done utilizing the fluorogenic substrate specific for MT1-MMP (MMP-14). Substrate (MMP-14 Substrate I, Fluorogenic, Calbiochem) was diluted in the same reaction buffer and loaded into the FLUOstar® for automatic injection (10 μM). […] The reaction was allowed to proceed in which 200 recordings (398 minutes) were collected. This reaction using the MMP-14 specific substrate was linear with increasing concentrations of a recombinant MMP-14 catalytic domain ([…], Chemicon) (FIG. 20).

MT1-MMP catalytic domain = assay: Validation of LTBP-1 fluorogenic substrate with MT1-MMP catalytic domain; assay type: biochemical; conditions: 15 uM LTBP-1 substrate; 0007258 5 pM; BB94 1 uM; AB8102 1 mg/mL
Description: Previous studies have identified mutations within a similar type of domain in fibrillin-1, an LTBP-1 homologue, implicated in Marfan Syndrome (MFS). Furthermore, MFS has been associated with the over-stimulation of TGF-Beta signaling as a result of fibrillin-1 mutation. Using this unique sequence, a fluorogenic peptide was constructed and validated. This peptide sequence was synthesized in a caged fluorogenic construct (AnaSpec Inc, CA; newly assigned peptide name:SCJJ-1) with a certified HPLC purity of >98% FIG. 28. Using the incubation conditions and fluorescent equipment described in the previous section, and a specific excitation/emission wavelength (340/483 nm), 15 uM of LTBP-1 was exposed to increasing concentrations of the MT1-MMP catalytic domain FIG. 28.
Thus, an LTBP-1 peptide sequence constructed and validated that is specifically cleaved by MT1-MMP.

angiotensin receptor, sequence (P30555 whole entry, the tested form may be a part): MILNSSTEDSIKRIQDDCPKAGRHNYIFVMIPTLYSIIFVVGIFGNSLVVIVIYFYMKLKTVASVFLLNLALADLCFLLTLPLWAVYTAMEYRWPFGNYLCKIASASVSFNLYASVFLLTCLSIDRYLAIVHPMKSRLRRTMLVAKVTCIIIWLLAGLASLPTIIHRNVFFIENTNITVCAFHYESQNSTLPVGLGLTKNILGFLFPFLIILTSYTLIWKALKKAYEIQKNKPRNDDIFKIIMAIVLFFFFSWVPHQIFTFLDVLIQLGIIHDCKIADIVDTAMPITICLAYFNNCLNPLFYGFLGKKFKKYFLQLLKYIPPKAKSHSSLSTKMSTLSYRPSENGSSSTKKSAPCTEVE
T1 sequence (P22894 101-467, species assumed): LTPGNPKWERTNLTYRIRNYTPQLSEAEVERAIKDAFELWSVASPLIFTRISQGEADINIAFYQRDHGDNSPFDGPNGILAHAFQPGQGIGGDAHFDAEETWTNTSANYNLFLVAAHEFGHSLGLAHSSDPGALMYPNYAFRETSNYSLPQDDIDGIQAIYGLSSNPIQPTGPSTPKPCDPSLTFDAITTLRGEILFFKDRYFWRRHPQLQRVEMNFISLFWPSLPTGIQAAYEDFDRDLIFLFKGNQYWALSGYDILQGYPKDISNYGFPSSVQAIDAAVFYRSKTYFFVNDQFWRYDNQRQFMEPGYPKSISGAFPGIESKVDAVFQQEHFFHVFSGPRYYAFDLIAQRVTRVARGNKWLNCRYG

Molecule: DABCYL-GABA-Arg-Pro-Lys-Pro-Val-Glu-Nva-Trp-Arg-Glu(EDANS)-Ala-Lys-NH2 [SEQ ID NO: 2]
- Specificity (MMPs): MMP-3,5,9,13

Molecule: CNC(=O)[C@H](Cc1c[nH]c2ccccc12)NC(=O)[C@@H](CC(=O)NO)CC(C)C [galardin]
- fluorescent activity in interstitial microdialysate samples on coinfusion with MMP substrate (MMP-2 and MMP-9): abolished all fluorescent activity

Molecule: DNP-Pro-Leu-Ala-Tyr-Trp-Ala-Arg-OH (Dnp-PLAYWAR-OH; SMILES CC(C)C[C@H](NC(=O)[C@@H]1CCCN1c1ccc([N+](=O)[O-])cc1[N+](=O)[O-])C(=O)N[C@@H](C)C(=O)N[C@@H](Cc1ccc(O)cc1)C(=O)N[C@@H](Cc1c[nH]c2ccccc12)C(=O)N[C@@H](C)C(=O)N[C@@H](CCCNC(=N)N)C(=O)O) [SEQ ID NO: 6]
- Specificity (MMPs): MMP-8

Molecule: CCCCC(=O)N(Cc1ccc(-c2ccccc2-c2nnn[nH]2)cc1)[C@H](C(=O)O)C(C)C [Valsartan]
- effect on angiotensin pressor response (angiotensin receptor): inhibited the angiotensin pressor response

Molecule: DNP-Pro-Tyr-Ala-Tyr-Trp-Met-Arg-OH (Dnp-PYAYWMR-OH; SMILES CSCC[C@H](NC(=O)[C@H](Cc1c[nH]c2ccccc12)NC(=O)[C@H](Cc1ccc(O)cc1)NC(=O)[C@H](C)NC(=O)[C@H](Cc1ccc(O)cc1)NC(=O)[C@@H]1CCCN1c1ccc([N+](=O)[O-])cc1[N+](=O)[O-])C(=O)N[C@@H](CCCNC(=N)N)C(=O)O) [SEQ ID NO: 4]
- Specificity (MMPs): MMP-3

Molecule: DNP-Pro-Leu-Gly-Met-Trp-Ser-Arg-OH (Dnp-PLGMWSR-OH; SMILES CSCC[C@H](NC(=O)CNC(=O)[C@H](CC(C)C)NC(=O)[C@@H]1CCCN1c1ccc([N+](=O)[O-])cc1[N+](=O)[O-])C(=O)N[C@@H](Cc1c[nH]c2ccccc12)C(=O)N[C@@H](CO)C(=O)N[C@@H](CCCNC(=N)N)C(=O)O) [SEQ ID NO: 9]
- Specificity (MMPs): MMP-2,9

Molecule: DNP-Pro-Leu-Gly-Leu-Trp-Ala-D-Arg-NH2 (Dnp-PLGLWA[dR]-NH2; SMILES CC(C)C[C@H](NC(=O)CNC(=O)[C@H](CC(C)C)NC(=O)[C@@H]1CCCN1c1ccc([N+](=O)[O-])cc1[N+](=O)[O-])C(=O)N[C@@H](Cc1c[nH]c2ccccc12)C(=O)N[C@@H](C)C(=O)N[C@H](CCCNC(=N)N)C(N)=O) [SEQ ID NO: 1]
- time to steady-state fluorescence emission ([1]; MMP-2/9 recombinant protein 500 ng/mL): ≤ 60 min
- Specificity (MMPs): MMP-1,2,3,7,9
- Specificity (MMPs; listed as SEQ ID NO:1): cleaved selectively by MMPs 1, 2, 3, 7, 9

Molecule: DNP-Arg-Pro-Leu-Ala-Leu-Trp-Arg-Ser-OH (Dnp-RPLALWRS-OH; SMILES CC(C)C[C@H](NC(=O)[C@H](C)NC(=O)[C@H](CC(C)C)NC(=O)[C@@H]1CCCN1C(=O)[C@H](CCCNC(=N)N)Nc1ccc([N+](=O)[O-])cc1[N+](=O)[O-])C(=O)N[C@@H](Cc1c[nH]c2ccccc12)C(=O)N[C@@H](CCCNC(=N)N)C(=O)N[C@@H](CO)C(=O)O) [SEQ ID NO: 5]
- Specificity (MMPs): MMP-7

Molecule: MCA-Pro-Leu-Ala-Cys(p-OMeBz)-Trp-Ala-Arg(Dpa)-NH2 (Mca-PLAC(Mob)WAR(Dpa)-NH2) [SEQ ID NO: 8]
- fluorescence emission from the substrate (MMP-2/9): failed to cause fluorescence emission
- fluorescence emission from the substrate [2]: failed to cause fluorescence emission
- fluorescence emission from the substrate (MMP-8): failed to cause fluorescence emission
- fluorescence emission from the substrate ([3]; injection of MT1-MMP catalytic domain 1000 ng/mL, in all protease cocktails): rapid rise in fluorescence emission
- time at which fluorescence emission plateaued ([3]; substrate 7.5 mM, 1.0 ng/mL recombinant MT1-MMP catalytic domain): around 90 minutes
- Specificity (MMPs): MMP-14
- Specificity (MMPs; listed as SEQ ID NO:8): cleaved selectively by MMP-14

Molecule: DNP-Pro-Leu-Ala-Leu-Trp-Arg-OH (Dnp-PLALWR-OH; SMILES CC(C)C[C@H](NC(=O)[C@H](C)NC(=O)[C@H](CC(C)C)NC(=O)[C@@H]1CCCN1c1ccc([N+](=O)[O-])cc1[N+](=O)[O-])C(=O)N[C@@H](Cc1c[nH]c2ccccc12)C(=O)N[C@@H](CCCNC(=N)N)C(=O)O) [SEQ ID NO: 3]
- Specificity (MMPs): MMP-1

Molecule: Dnp-PLGLGMWSR-OH
- time at which relative fluorescence plateaued (purified MMP-2/9): ≤ 60 min

Molecule: CNC(=O)[C@H](Cc1ccccc1)NC(=O)[C@H](CC(C)C)[C@H](CSc1cccs1)C(=O)NO [BB94]
- fluorescence emission with addition of inhibitor ([1]; BB-94, MMP-2/9 500 ng/mL): abolished
- inhibition of MMP-1, 2, 3, 7, 9 substrate reaction (MMP-1, 2, 3, 7, 9): significantly inhibited
- inhibition of MMP-14 substrate reaction (MMP-14): significantly inhibited
- fluorescence emission with addition of BB94 ([3]; MT1-MMP recombinant catalytic domain, FIG. 13): abolishment of fluorescence emission
- fluorescent activity on co-incubation (MT1-MMP catalytic domain): extinguished all fluorescent activity

Molecule: MCA-Pro-Cha-Gly-Nva-His-Ala-Dpa-NH2 (Mca-P[Cha]G[Nva]HA-{Dpa-NH2}) [SEQ ID NO: 7]
- Specificity (MMPs): MMP-13
